The experiment concerns CEM cells HIV-1 protection, formazan growth assay. In words: NCI AIDS Antiviral Assay. The conditions noted are these: for IC50: measured here: growth of uninfected CEM cells. The essentials: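 Soluble formazan readout of cell growth; CEM cells ± HIV-1; 5 drug concs. ≥50% protection → retest; ≥50% again = moderately active; reproducible 100% = confirmed active.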

Activity calls are given as the source filed them.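 Rule for the calls: active = compounds giving half or more protection of infected cells from virus-caused growth loss, again on retest; inactive = the rest.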

The EC50 is the concentration that produces a half-maximal response. As usually defined, the IC50 is the concentration needed to halve the response being measured.

As to `CC1C2CCC3C4CC=C5CC(N(C)C)CCC5(C)C4CCC32CN1C` (configuration not stated), the EC50 is > 200 µM and the 50% inhibitory concentration (IC50) turned out to be 41.7 µM.

For the compound `CC(=O)OC[C@@H](COC(=O)/C=C/c1ccc(O)cc1)OC1OC(CO)C(O)C(O)C1O` (some centres not stated), the result was inactive.

For the compound `CN1CCCN(C)CCCN(C)CCCN(C)CCC1`, the EC50 was > 100 µM and the half-inhibitory concentration (IC50) was > 100 µM.

In the case of `C/C=C(\C)c1cc(OC)c(C)c2c1C(=O)Oc1c(C)c(O)c(Cl)c(/C(C)=C/C)c1O2`, the outcome was inactive.

Consider `NC(CCCCNCc1ccccc1)C(=O)O` (configuration not stated), for which the EC50 was > 1050 µM and the concentration for half-maximal inhibition (IC50) was > 1050 µM.

For `O=C1OCCSCCOCCSCCOC(=O)c2cccc1n2`, the outcome was inactive.

Turning to `OCC1OC(c2scc3c(=S)nc[nH]c23)C(O)C1O` (configuration not stated), the EC50 was > 200 µM and the IC50 was found to be 12.6 µM.

`O=C(Cn1ccnc1[N+](=O)[O-])c1ccc(F)cc1`: the EC50 is > 724 µM and the IC50 stood at 339 µM.

In the case of `CCN(CC)CC(=O)Nc1c(C)cc(C(=O)NN)cc1C`, the EC50 is > 200 µM and the concentration for half-maximal inhibition (IC50) was > 200 µM.

As for `CN(C)CCN1C(=O)c2cccc3cc([N+](=O)[O-])cc(c23)C1=O`, the EC50 was > 200 µM and the IC50 is 0.0912 µM.

`COc1cc2c(cc1OC)C(C1c3cc(OC)c(OC)cc3-c3c(OC)c(OC)cc4c3C1N(C)CC4)C1c3c(cc(OC)c(OC)c3-2)CCN1C` (configuration not stated): the outcome was inactive.

Turning to `Cc1ccc(/C(C#N)=C/c2cccc([N+](=O)[O-])c2)cc1`, the EC50 was > 200 µM and the IC50 was > 200 µM.

With `CC(=O)OCCCOCn1cc(C)c(=O)[nH]c1=O`, the EC50 was > 200 µM and the IC50 was > 200 µM.

As for `CN1CCC2(CC1)C(=O)N(Cc1ccccc1)C(=O)C2c1ccccc1` (configuration not stated), the EC50 was > 372 µM and the IC50 amounted to 214 µM.

As for `CCOC1C2c3cc(OC)c(OC)cc3CC(C#N)(c3ccccc32)N1C(=O)c1ccccc1` (configuration not stated), the outcome was inactive.

Regarding `CC1(C)OC2OC(COC(=O)C=[N+]=[N-])C3OC(C)(C)OC3C2O1` (configuration not stated), the EC50 is > 200 µM and the IC50 was > 200 µM.

Turning to `COc1cc(C2C(Cl)C(=O)N2NC(=O)c2ccc(NC(C)=O)cc2)cc(OC)c1OC` (configuration not stated), the EC50 is > 200 µM and the IC50 is > 200 µM.

Turning to `CC1(C)C(N2CCOCC2)CS1(=O)=O` (configuration not stated), the EC50 was > 200 µM and the IC50 is > 200 µM.

On to `O=C1CCc2cc3c(cc21)C(C(=O)O)CC3` (configuration not stated), for which the EC50 was > 200 µM and the IC50 is > 200 µM.

Take `CC(C)=CC(=O)Cc1nc2cc(C)c(C)cc2[nH]c1=O`: the outcome was inactive.

Turning to `COc1c(NC(C)=O)cc(C)cc1NC(C)=O`, the outcome was inactive.

For the compound `COc1c2occc2c(N=Cc2c[nH]c3ccccc23)c2ccc(=O)oc12`, the EC50 is > 50.1 µM and the IC50 was 28.2 µM.
